Results: patent US20050070437A1, “Herbicide combinations comprising specific sulfonamides” (Bayer CropScience GmbH, priority 2003, published 2005)

Experiments:
[1] = tested on: Triticum aestivum; assay type: in vivo; settings: field trial, natural outdoor conditions; scored visually about 4 weeks after application vs untreated plots; mean of 2-4 plots; application rate g of active substance/hectare: A 5, B 25, C 50 (A + B 5 + 25; A + B + C 5 + 25 + 50)
Experimental: (§1) The seeds or rhizome pieces of the harmful plants and the useful plants were laid out or were present in the soil, and they were grown under natural outdoor conditions. Treatment with the active compounds or active compound combinations was carried out […] before and/or after the emergence of the plants, generally at the 2- to 4-leaf stage, in various dosages using a water application rate of 100 to 400 l/ha (converted).
(§2) After the application (about 4 weeks after the application), the effectiveness of the active compounds or active compound combinations was scored visually by comparing the treated plots to untreated control plots. During scoring, damage and development of all above-ground parts of plants was assessed. Scoring was carried out using a percentage scale (100% effect=all plants have died; 50% effect=50% of the plants and the green parts of the plants have died; 0% effect=no effect observed=like control plot). In each case, the mean score of 2-4 plots was calculated.
(§3) The results are shown in the table below; the effect of the individual application of active compounds (A+B) and C being stated in brackets.

[2] = tested on: Veronica hederifolia; assay: Herbicidal action (field trials), visual scoring of harmful plant; assay type: in vivo; settings: field trial, natural outdoor conditions; scored visually about 4 weeks after application vs untreated plots; mean of 2-4 plots; application rate g of active substance/hectare: A 5, B 25, C 50 (A + B 5 + 25; A + B + C 5 + 25 + 50)
Experimental: as §1, §2, §3

| SMILES | Triticum aestivum % damage [1] | Veronica hederifolia % effect [2] |
| --- | --- | --- |
| COC(=O)c1ccc(I)cc1S(=O)(=O)[N-]C(=O)Nc1nc(C)nc(OC)n1.[Na+] [iodosulfuron-methyl-sodium] | 1% | 15% |
| O=C(Nc1ccc(F)cc1F)c1cccnc1Oc1cccc(C(F)(F)F)c1 [diflufenican, 2′,4′-difluoro-2-(α,α,α-trifluoro-m-tolyloxy)nicotinanilide] | 0% | 40% |
| CCCOc1nn(C(=O)[N-]S(=O)(=O)c2ccccc2C(=O)OC)c(=O)n1C.[Na+] [propoxycarbazone-sodium] | 2% | 28% |
